pIC50: −log10 of the molar value.
Experiments:
Type in all cases: cell-based
TMD8 cells = test: Viability assay of TMD8 cells (CTG); settings: Homo sapiens, cell viability, 120 hours
Description: (§1) The in vitro antiproliferative activity of the compounds of the present disclosure against TMD8 cells and OCI-LY10 cells was assayed using CTG (Cell Titer-Glo) luminescent cell viability assay. The specific assay methods were as follows. • a) TMD8 cells were cultured at 37 °C and 5% CO2 in complete medium [RPMI 1640 (supplier Gibco, product number 22400-089) + 10% FBS (supplier Gibco, product number 10091-148) + 1% P/S (supplier Hyclone, product number SV30010)]; OCI-LY10 cells were cultured at 37 °C and 5% CO2 in medium [IMDM (supplier Gibco, product number 31980-030) + 20% FBS (supplier Gibco, product number 10091-148) + 1% P/S (supplier Hyclone, product number SV30010) + 0.05 mM 2-Mercaptoethanol (supplier Sigma, product number M6250)]. • b) Cells in the logarithmic growth phase were harvested, and the total cell count and viable cell count were determined using a Vi-cell cell counter (supplier: BECKMAN COULTER, product number 2785198). • c) Cell density was adjusted using complete culture medium. Then, the cells were inoculated at 1500 cells per well in a 384-well cell culture plate (supplier Greiner, product number 781090). • d) The cells in the 384-well plate were cultured at 37 °C and 5% CO2 overnight. • e) A 10-fold drug solution was prepared, and then the serially diluted compound was transferred to the corresponding assay wells of the 384-well cell plate so that the final assay concentration was 1000 nM, with 9 concentrations, 3-fold dilutions, and triplicates for each drug concentration. • f) The cells in the 384-well plate with the drug added were cultured at 37 °C and 5% CO2 for another 120 hours. • g) The cells were removed from the incubator, and allowed to equilibrate at room temperature for 30 minutes. The cell state and compound solubility were observed under a microscope. • h) An equal volume of CellTiterGlo solution (supplier Promega, product number G7573) was added to each well, and the plate was incubated at room temperature for 30 minutes. • i) Then, the luminescent signal value was detected on an EnVision instrument (supplier PerkinElmer, product number 2441715).
(§2) The data were analyzed using XL-fit software (supplier: ID Business Solutions Ltd., software version: XL fit 5.5.0.5). Nonlinear regression was performed using X=Log(X), and the X values were transformed using a four-parameter Logistic model 205, from which the IC50 values were calculated. Inhibition rate % = (Max−samplevalue)/Max*100.(Max:DMSOnegativecontrol) [formula]

OCI-LY10 cells = test: Viability assay of OCI-LY10 cells (CTG); settings: Homo sapiens, OCI-Ly10, 120 h, cell viability, read-out: OCl-Ly10
Description: as §1, §2

[1] = test system: Ba/F3-ETV6-BTK-T474I cells; test: Viability assay of Ba/F3-ETV6-BTK-T474I cells (CTG); settings: Mus musculus, BaF3, cell viability, 72 hours
Description: The in vitro antiproliferative activity of the compounds of the present disclosure against Ba/F3-ETV6-BTK-T474I cells was assayed using CTG luminescent cell viability assay. The specific assay methods were as follows: • a) Ba/F3-ETV6-BTK-T474I cells were cultured at 37 °C and 5% CO2 in complete medium [RPMI 1640 (supplier Gibco, product number 22400-089) + 10% FBS (supplier Gibco, product number 10091-148)]. • b) Cells in the logarithmic growth phase were harvested, and cell counting was performed using a […]. Trypan blue exclusion test was used to determine the cell viability, ensuring that the cell viability was above 90%. • c) Cell density was adjusted using complete culture medium. Then, the cells were inoculated at 90 µL, a total of 3000 cells per well in a 96-well cell culture plate (supplier: Shanghai Jing An Biotechnology Co., Ltd., product number J09601). • d) The cells in the 96-well plate were cultured at 37 °C and 5% CO2. • e) A 10-fold drug solution was prepared, and then 10 µL of each serially diluted compound was transferred to the corresponding assay wells of the 96-well cell plate so that the final assay concentration was 1000 nM, with 9 concentrations, 3.16-fold dilutions, and triplicates for each drug concentration. • f) The cells in the 96-well plate with the drug added were cultured at 37 °C and 5% CO2 for another 72 hours. Then, CTG analysis was performed. • g) The CTG reagent was melted, and the cell plate was equilibrated at room temperature for 30 minutes. • h) An equal volume of CTG solution was added to each well. • i) The plate was shaken on an orbital shaker for 5 minutes to lyse the cells. • j) The cell plate was placed at room temperature for 20 minutes to stabilize the luminescent signal. • k) The luminescent signal values were read and the data were collected.
The data were analyzed using GraphPad Prism 7.0 software. Nonlinear S-curve regression was used to fit the data to give a dose-response curve, from which the IC50 values were calculated. [formula]

Row | pIC50 (OCI-LY10 cells) | pIC50 [1] | Compound | pIC50 (TMD8 cells)
1 | 8.00 to 8.30 |  | COc1ccc(F)cc1C(=O)NCc1ccc(-c2ncc(-c3ccc(F)cn3)c3[nH]nc(N)c23)cc1 [Example 21, N-(4-(3-amino-7-(5-fluoropyridin-2-yl)-1H-pyrazolo[4,3-c]pyridin-4-yl)benzyl)-5-fluoro-2-methoxybenzamide] | ≥ 8.30
2 | ≥ 8.30 |  | COc1ccc(F)cc1C(=O)NCc1ccc(-c2ncc(-c3ccn(C)n3)c3[nH]nc(N)c23)cc1 [Example 23, N-(4-(3-amino-7-(1-methyl-1H-pyrazol-3-yl)-1H-pyrazolo[4,3-c]pyridin-4-yl)benzyl)-5-fluoro-2-methoxybenzamide] | ≥ 8.30
3 | 7.30 to 8.00 |  | COc1ccc(F)cc1C(=O)NCc1ccc(-c2ncc(-c3ccc(C(F)(F)F)cn3)c3[nH]nc(N)c23)cc1 [Example 24, N-(4-(3-amino-7-(5-(trifluoromethyl)pyridin-2-yl)-1H-pyrazolo[4,3-c]pyridin-4-yl)benzyl)-5-fluoro-2-methoxybenzamide] | ≥ 8.30
4 | ≥ 8.30 |  | COc1ccc(F)cc1C(=O)NCc1ccc(-c2ncc(-c3ccc(S(C)(=O)=O)cn3)c3[nH]nc(N)c23)cc1 [Example 35, N-(4-(3-amino-7-(5-(methylsulfonyl)pyridin-2-yl)-1H-pyrazolo[4,3-c]pyridin-4-yl)benzyl)-5-fluoro-2-methoxybenzamide] | ≥ 8.30
5 | ≥ 8.30 | 7.30 to 8.00 | COc1ccc(F)cc1C(=O)NCc1ccc(-c2ncc(-c3ccc(C)cn3)c3[nH]nc(N)c23)cc1 [Example 37, N-(4-(3-amino-7-(5-methylpyridin-2-yl)-1H-pyrazolo[4,3-c]pyridin-4-yl)benzyl)-5-fluoro-2-methoxybenzamide] | ≥ 8.30
6 | ≥ 8.30 | 8.00 to 8.30 | COc1ccc(F)cc1C(=O)NCc1ccc(-c2ncc(-c3ccc(C4COC4)cn3)c3[nH]nc(N)c23)cc1 [Example 43, N-(4-(3-amino-7-(5-(oxetan-3-yl)pyridin-2-yl)-1H-pyrazolo[4,3-c]pyridin-4-yl)benzyl)-5-fluoro-2-methoxybenzamide] | ≥ 8.30
7 | ≥ 8.30 | 8.00 to 8.30 | COc1ccc(F)cc1C(=O)NCc1ccc(-c2ncc(-c3cc4ncccn4n3)c3[nH]nc(N)c23)cc1 [Example 44, N-(4-(3-amino-7-(pyrazolo[1,5-a]pyrimidin-2-yl)-1H-pyrazolo[4,3-c]pyridin-4-yl)benzyl)-5-fluoro-2-methoxybenzamide] | ≥ 8.30
8 | 8.00 to 8.30 | < 7.30 | COc1ccc(F)cc1C(=O)NCc1ccc(-c2ncc(-c3ccn4nccc4n3)c3[nH]nc(N)c23)cc1 [Example 46, N-(4-(3-amino-7-(pyrazolo[1,5-a]pyrimidin-5-yl)-1H-pyrazolo[4,3-c]pyridin-4-yl)benzyl)-5-fluoro-2-methoxybenzamide] | ≥ 8.30
9 | ≥ 8.30 | ≥ 8.30 | COc1ccc(F)cc1C(=O)NCc1ccc(-c2ncc(-c3ccc(C(=O)N4CCOCC4)cn3)c3[nH]nc(N)c23)cc1 [Example 52, N-(4-(3-amino-7-(5-(morpholine-4-carbonyl)pyridin-2-yl)-1H-pyrazolo[4,3-c]pyridin-4-yl)benzyl)-5-fluoro-2-methoxybenzamide] | ≥ 8.30
10 | ≥ 8.30 | ≥ 8.30 | COc1ccc(F)cc1C(=O)NCc1ccc(-c2ncc(-c3ccc(C(=O)N4C[C@H](C)O[C@@H](C)C4)cn3)c3[nH]nc(N)c23)cc1 [Example 53, N-(4-(3-amino-7-(5-((2S,6S)-2,6-dimethylmorpholine-4-carbonyl)pyridin-2-yl)-1H-pyrazolo[4,3-c]pyridin-4-yl)benzyl)-5-fluoro-2-methoxybenzamide] | ≥ 8.30
11 | ≥ 8.30 | 8.00 to 8.30 | COCCOc1ccc(-c2cnc(-c3ccc(CNC(=O)c4cc(F)ccc4OC)cc3)c3c(N)n[nH]c23)nc1 [Example 59, N-(4-(3-amino-7-(5-(2-methoxyethoxy)pyridin-2-yl)-1H-pyrazolo[4,3-c]pyridin-4-yl)benzyl)-5-fluoro-2-methoxybenzamide] | ≥ 8.30
12 | ≥ 8.30 | 8.00 to 8.30 | COc1ccc(F)cc1C(=O)NCc1ccc(-c2ncc(-c3ccc(OCCN(C)C)cn3)c3[nH]nc(N)c23)cc1 [Example 60, N-(4-(3-amino-7-(5-(2-(dimethylamino)ethoxy)pyridin-2-yl)-1H-pyrazolo[4,3-c]pyridin-4-yl)benzyl)-5-fluoro-2-methoxybenzamide] | ≥ 8.30
13 | ≥ 8.30 | ≥ 8.30 | COc1ccc(F)cc1C(=O)NCc1ccc(-c2ncc(-c3ccc(OCCN4CCOCC4)cn3)c3[nH]nc(N)c23)cc1 [Example 61, N-(4-(3-amino-7-(5-(2-morpholinoethoxy)pyridin-2-yl)-1H-pyrazolo[4,3-c]pyridin-4-yl)benzyl)-5-fluoro-2-methoxybenzamide] | ≥ 8.30
14 | ≥ 8.30 | 7.30 to 8.00 | COc1ccc(F)cc1C(=O)NCc1ccc(-c2ncc(-c3ccc(OCCN4CCCC4)cn3)c3[nH]nc(N)c23)cc1 [Example 62, N-(4-(3-amino-7-(5-(2-(pyrrolidin-1-yl)ethoxy)pyridin-2-yl)-1H-pyrazolo[4,3-c]pyridin-4-yl)benzyl)-5-fluoro-2-methoxybenzamide] | ≥ 8.30
15 | 7.30 to 8.00 |  | COc1ccc(F)cc1C(=O)NCc1ccc(-c2nc(C)c(-c3ncccn3)c3[nH]nc(N)c23)cc1 [Example 84, N-(4-(3-amino-6-methyl-7-(pyrimidin-2-yl)-1H-pyrazolo[4,3-c]pyridin-4-yl)benzyl)-5-fluoro-2-methoxybenzamide] | 8.00 to 8.30
16 | 7.30 to 8.00 |  | COc1ccc(F)cc1C(=O)NCc1ccc(-c2nc(C(F)F)c(-c3ncccn3)c3[nH]nc(N)c23)cc1 [Example 85, N-(4-(3-amino-6-(difluoromethyl)-7-(pyrimidin-2-yl)-1H-pyrazolo[4,3-c]pyridin-4-yl)benzyl)-5-fluoro-2-methoxybenzamide] | ≥ 8.30
17 | ≥ 8.30 |  | COc1ccc(F)cc1C(=O)NCc1ccc(-c2nc(C3CCSCC3)cc3[nH]nc(N)c23)cc1 [Example 91, N-(4-(3-amino-6-(tetrahydro-2H-thiopyran-4-yl)-1H-pyrazolo[4,3-c]pyridin-4-yl)benzyl)-5-fluoro-2-methoxybenzamide] | ≥ 8.30
18 | ≥ 8.30 |  | C=CC(=O)N1CCCC(c2cc3[nH]nc(N)c3c(-c3ccc(CNC(=O)c4cc(F)ccc4OC)cc3)n2)C1 (stereo not drawn) [Example 96, N-(4-(6-(1-acryloylpiperidin-3-yl)-3-amino-1H-pyrazolo[4,3-c]pyridin-4-yl)benzyl)-5-fluoro-2-methoxybenzamide] | ≥ 8.30
19 | ≥ 8.30 |  | COc1ccc(F)cc1C(=O)NCc1ccc(-c2nc([C@H]3CC[C@H](CO)CC3)cc3[nH]nc(N)c23)cc1 [Example 117, N-(4-(3-amino-6-((1r,4r)-4-(hydroxymethyl)cyclohexyl)-1H-pyrazolo[4,3-c]pyridin-4-yl)benzyl)-5-fluoro-2-methoxybenzamide] | ≥ 8.30
